How the values were obtained:
Aged C57BL/6J mice [1] = test: CK level after 90 min downhill running; type: in vivo, C57BL/6JRj mice; details: 1 mg/kg in the food, week 15, trend for improvement
Protocol: Figure 2 Chronic oral administration of ALT-007 enhances physical fitness in aged mice. (A) Schematic representation of the study time-line. Compounds were mixed in the food, ALT-007 at 1 mg/kg and DMSO at equivalent volume. At week 0: young mice were 2 months old, and the old mice were 18 months old. (B) Body weight curve over the course of the study (20 weeks). (C) Food intake curve throughout the study. (D–G) Organ mass at sacrifice (week 20), normalized to body weight. (H) Oral glucose tolerance test (oGTT) performed at week 17. (I) Best performance during hanging time normalized to BW at week 7. (J) Best performance during grip strength on the 4 limbs normalized to BW at week 8. (K) Rotarod’s best latency time at week 9. (L) VO2Max performed at week 11. (M) Uphill maximum running time performed at week 13. N = 9 per group. (N) Difference of CK level after—before 90 min downhill running performed at week 15. N = 6 in young, N = 8 in DMSO and N = 7 in ALT-007-treated groups. (O–Q) Measurement of kCAL/h at night (O) and at day (P) and movement recording in x, y, z (Q) during 24 h in CLAMS at week 19. N = 12 per group unless specified otherwise. Quantitative data are expressed as median with IQR. *P < 0.05, **P < 0.01, ***P < 0.001, ****P < 0.0001. ANOVA test was used for multiple comparison, and the Mann–Whitney U test when comparing 2 groups. All tests were 2 sided.

Aged C57BL/6J mice [2] = test: Lean mass (echoMRI) and muscle weight at sacrifice in aged mice; type: in vivo, C57BL/6JRj mice; details: 1 mg/kg in the food
Protocol: At the first and last (week 20) after experiment onset (as indicated in Figure 2A), body composition analysis was conducted. Each mouse was placed for short in an Echo-MRI (magnetic resonance imaging) machine, specifically the 3-in-1 model from Echo Medical Systems. This procedure recorded lean mass, along with total body weight, with each measurement taking approximately 1 min per individual.
Prior to sacrifice, mice were fasted for 4 h in the morning. Animals were sacrificed between 1:30 and 4 p.m. Mice were anesthetized with isoflurane, followed by a complete blood draw from the vena cava and perfusion with cold phosphate-buffered saline. Immediately thereafter, various tissues including liver, kidney, spleen, heart, brain, gastrocnemius muscle and tibialis anterior muscle were harvested, weighted and promptly flash-frozen in liquid nitrogen.

[3] = set-up: method as in PMID 29669694; details: compared to Myriocin; cited from earlier work
[4] = 10-day food admix tolerability in mice (body weight, food intake, plasma AST, ALT, CK); type: in vivo; details: 10 days
Protocol: (A) Schematic representation of the de novo sphingolipid synthesis pathway. (B) Chemical structures of myriocin (MYR) and ALT-007. (C) Heatmap analysis comparing the effects of treatments with the indicated concentrations of MYR and ALT-007 on lipid species in C2C12 cells. N = 3 per group. Data are shown as log2 fold change. (D) Body weight curves of mice treated with ALT-007 or vehicle (4 mg/kg/d for 10 days, in the food). (E) Mean food consumption measurement throughout the treatment. (F) Plasma levels of aspartate transaminase (AST), (G) alanine transaminase (ALT) and (H) creatine kinase (CK) after 10 days of treatment with ALT-007 at 4 mg/kg/day. (I) Ceramide levels measured in the gastrocnemius muscle after 10 days of treatment. N = 8 per group. Quantitative data are expressed as median with min to max values. *P < 0.05, **P < 0.01, ***P < 0.001. ANOVA test was used for multiple comparison, and the Mann–Whitney U test when comparing 2 groups. All tests were 2 sided. Abbreviation: SPT, serine palmitoyltransferase; CK, creatine kinase; MYR, Myriocin; ns, nonsignificant.
Plasma parameters were assessed using samples diluted two times (at a 1:1 ratio of plasma to diluent) with the DimensionXpand Plus system from Siemens Healthcare Diagnostics. The biochemical tests were conducted in accordance with the manufacturer’s instructions for each specific parameter. These parameters included transaminase AST (DF41A), transaminase ALT (DF143) and creatine kinase (11097640), all provided by Siemens Healthcare.

Aged C57BL/6J mice [5] = test: Uphill running; type: in vivo, C57BL/6JRj mice; details: 1 mg/kg in the food, week 13, trend for improvement
Protocol: Animals were placed on a treadmill at a speed of 15 cm/s in the beginning, then speed was increased by 3 cm/s every 12 min, with an incline of 5°. Mice were taken off the treadmill if they were considered exhausted (5 or more shocks (0.1 mA) per minute for two consecutive minutes) or if the maximum duration of the test was reached (3 h). The maximum running time before exhaustion was recorded and registered as maximum uphill running time.[34]

Aged C57BL/6J mice [6] = test: Rotarod test; type: in vivo, C57BL/6JRj mice; details: 1 mg/kg in the food, week 9
Protocol: The rotarod test assesses muscle strength, coordination, and endurance.[32] Mice were allowed to acclimate in the room for 30 min. […] Each mouse underwent three trials per day for three consecutive days. The latency at which the mouse either reached passive rotation or fell from the rotor was recorded. The results presented here focus on the latency of the best trial conducted on the second day.

Aged C57BL/6J mice [7] = test: VO2max test; type: in vivo, C57BL/6JRj mice; details: 1 mg/kg in the food, week 11
Protocol: VO2max in mice was measured with a calorimetric treadmill (Columbus Instruments) with an incremental speed protocol as previously described.[33]

Aged C57BL/6J mice [8] = test: Oral glucose tolerance test (oGTT) in aged mice; type: in vivo, C57BL/6JRj mice; details: 1 mg/kg in the food, week 17
Protocol: For OGTT, mice underwent an overnight fast, and on the morning of the experiment, they were administered a gavage consisting of a 20% glucose solution in water (10 mL [2 g]/kg body weight). Blood glucose levels were monitored from the tail vein using a glucometer prior to the gavage and at 15, 30, 45, 60, 90, 120, 150, and 180 min thereafter. Additionally, blood samples were collected at 0 min (pregavage), 15 and 30 min to assess fasting insulin levels and glucose-stimulated insulin secretion. oGTT was performed 17 weeks post experiment onset as indicated in Figure 2A.

Aged C57BL/6J mice [9] = test: Grip strength; type: in vivo, C57BL/6JRj mice; details: 1 mg/kg in the food, week 8, 4 limbs, normalized to BW
Protocol: Grip strength was evaluated using a grip strength test. Each mouse’s grip strength was measured using a pulldown grid assembly connected to a grip strength meter (Columbus Instruments). The mouse was pulled along a straight line parallel to the grip to determine peak force. The experiment was conducted three times, and the highest recorded value was considered for the analysis.

[10] = 4 mg/kg/d in the food, vs DMSO control mice

## COc1cc(C(=O)N2CC[C@H](NC(=O)c3ccccc3OC(F)(F)F)c3c2cnn3C(C)C)cnc1OC [ALT-007]
Aged C57BL/6J mice [1]
  creatine kinase in the blood after a downhill running test: nor did it reduce
Aged C57BL/6J mice [2]; after 11 weeks
  lean mass measured by echoMRI: increased lean mass
Aged C57BL/6J mice [2]; at sacrifice after 20 weeks
  muscle weight (gastrocnemius, tibialis anterior): increased muscle weight
[3]
  permeability: improved
[4]; [10]
  body weight: no differences
  food intake: no differences
[4]; 4 mg/kg/day
  hepatic toxicity by plasma transaminase (AST, ALT) levels: neither hepatic nor muscle toxicity was identified
  muscle toxicity by plasma creatine kinase (CK) levels: neither hepatic nor muscle toxicity was identified
Aged C57BL/6J mice [5]
  ability to run uphill (maximum running time): did not significantly improve
Aged C57BL/6J mice [6]
  coordination measured by the rotarod test: improved
Aged C57BL/6J mice [7]
  VO2max: significantly higher
Aged C57BL/6J mice [8]
  glucose tolerance test: no difference
Aged C57BL/6J mice [9]
  grip strength: increased compared to aged control mice

Reference: paper PMC11729425 (ACS Pharmacology & Translational Science, 2024)
